According to patent US12390446B2 (RESEARCH TRIANGLE INSTITUTE, priority 2017, dated 2025):
Read-outs that look alike come from different tables or passages of the source.

Columns and labels:
[1] = target: T1, NPFF1 receptor (human NPFFR1 in CHO-RD-HGA16 cells) (Homo sapiens, UniProt Q9GZQ6); assay: Calcium mobilization functional Ke assay, NPFF1; assay type: cell-based; conditions: for Kb: read-out: NPFF1 Ke
T1 construct: expressed in transfected cells

[2] = target: T2, NPFF2 receptor (human NPFFR2 in CHO-RD-HGA16 cells) (Homo sapiens, UniProt Q9Y5X5); assay: Calcium mobilization functional Ke assay, NPFF2; assay type: cell-based; conditions: mean ± SEM; for Kb: read-out: NPFF2 Ke
T2 construct: expressed in transfected cells
T2 sequence (Q9Y5X5 whole entry): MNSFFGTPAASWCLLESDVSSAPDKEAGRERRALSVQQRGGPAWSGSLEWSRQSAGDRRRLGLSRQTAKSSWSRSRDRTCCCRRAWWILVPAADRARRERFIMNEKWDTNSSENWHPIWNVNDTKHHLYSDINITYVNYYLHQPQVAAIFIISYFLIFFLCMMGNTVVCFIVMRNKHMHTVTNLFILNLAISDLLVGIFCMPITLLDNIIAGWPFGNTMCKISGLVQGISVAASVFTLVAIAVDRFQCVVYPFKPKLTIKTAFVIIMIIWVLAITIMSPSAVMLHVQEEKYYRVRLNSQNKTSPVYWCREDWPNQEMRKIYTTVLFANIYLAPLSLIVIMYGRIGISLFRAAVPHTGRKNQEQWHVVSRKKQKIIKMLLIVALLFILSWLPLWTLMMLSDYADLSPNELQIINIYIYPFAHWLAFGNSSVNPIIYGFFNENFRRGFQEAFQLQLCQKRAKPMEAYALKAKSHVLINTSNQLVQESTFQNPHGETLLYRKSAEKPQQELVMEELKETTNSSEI

T1 sequence (Q9GZQ6 whole entry): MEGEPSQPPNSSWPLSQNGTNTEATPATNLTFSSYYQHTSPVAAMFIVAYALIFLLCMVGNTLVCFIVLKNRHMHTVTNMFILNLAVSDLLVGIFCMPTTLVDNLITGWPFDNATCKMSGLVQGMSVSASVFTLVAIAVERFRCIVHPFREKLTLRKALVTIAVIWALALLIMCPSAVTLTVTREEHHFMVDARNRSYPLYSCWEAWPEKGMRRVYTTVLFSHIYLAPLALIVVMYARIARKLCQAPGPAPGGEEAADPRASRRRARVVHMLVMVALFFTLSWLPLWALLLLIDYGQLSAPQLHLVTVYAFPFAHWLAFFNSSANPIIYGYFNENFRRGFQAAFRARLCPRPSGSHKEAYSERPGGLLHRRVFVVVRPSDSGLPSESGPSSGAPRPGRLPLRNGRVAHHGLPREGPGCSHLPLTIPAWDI

| SMILES | Kb ([1]; Table 3, mean ± SEM) | Kb ([2]; Table 3) | Kb ([1]; Table 4, mean ± SEM) | Kb ([2]; Table 4) | further results |
| --- | --- | --- | --- | --- | --- |
| CCCCCCN[C@H]1C[C@@H](C(=O)NCCc2ccc([N+](=O)[O-])cc2)N(Cc2ccccc2Cl)C1 [Compound 55, (2S,4S)-1-[(2-Chlorophenyl)methyl]-4-(hexylamino)-N-[2-(4-nitrophenyl)ethyl]pyrrolidine-2-carboxamide] | 2.32 µM | 4.47 µM | – | – | – |
| O=C(NCCc1ccc([N+](=O)[O-])cc1)[C@@H]1C[C@H](NCc2ccc(O)cc2)CN1Cc1ccccc1Cl [Compound 61, (2S,4S)-1-[(2-Chlorophenyl)methyl]-4-{[(4-hydroxyphenyl)methyl]amino}-N-[2-(4-nitrophenyl)ethyl]pyrrolidine-2-carboxamide] | 4.79 µM | 6.37 µM | – | – | – |
| CCCCCCN1C[C@@H](NCc2ccc(OC)cc2)C[C@H]1C(=O)NCCc1ccccc1 [Compound 74, (2S,4S)-1-Hexyl-4-{[(4-methoxyphenyl)methyl]amino}-N-(2-phenylethyl)pyrrolidine-2-carboxamide] | – | – | 1.45 µM | 7.1 µM | – |
| COc1ccc(CN[C@H]2C[C@@H](C(=O)NCCc3ccccc3)N(CC3CCCCC3)C2)cc1 [Compound 75, (2S,4S)-1-(Cyclohexylmethyl)-4-{[(4-methoxyphenyl)methyl]amino}-N-(2-phenylethyl) pyrrolidine-2-carboxamide] | – | – | – | – | NPFF1 Ke ([1]; Table 4, mean ± SEM): 650 ± 70 nM; NPFF2 Ke ([2]; Table 4): 3,640 ± 830 nM |
| COc1ccc(CN[C@H]2C[C@@H](C(=O)NCCc3ccccc3)N(Cc3ccccc3)C2)cc1 [Compound 76, (2S,4S)-1-Benzyl-4-{[(4-methoxyphenyl)methyl]amino}-N-(2-phenylethyl)pyrrolidine-2-carboxamide] | – | – | 1.27 µM | > 10 µM | – |
| COc1ccc(CN[C@H]2C[C@@H](C(=O)NCCc3ccccc3)N(Cc3cccc(Cl)c3)C2)cc1 [Compound 77, (2S,4S)-1-[(3-Chlorophenyl)methyl]-4-{[(4-methoxyphenyl)methyl]amino}-N-(2-phenylethyl)pyrrolidine-2-carboxamide] | – | – | 0.58 ± 0.05 µM | 4.1 µM | preference / selectivity for NPFF1 over NPFF2 ([1]; from calcium mobilization Ke values): > 10 fold |
| COc1ccc(CN[C@H]2C[C@@H](C(=O)NCCc3ccccc3)N(Cc3ccc(Cl)cc3)C2)cc1 [Compound 78, (2S,4S)-1-[(4-Chlorophenyl)methyl]-4-{[(4-methoxyphenyl)methyl]amino}-N-(2-phenylethyl)pyrrolidine-2-carboxamide] | – | – | 2.15 µM | 4.85 µM | – |

Further lines, with some results ahead:

| Kb ([1]; Table 3, mean ± SEM) | Kb ([2]; Table 3) | Kb ([1]; Table 4, mean ± SEM) | Kb ([2]; Table 4) | SMILES | further results |
| --- | --- | --- | --- | --- | --- |
| 1.23 µM | 1.4 µM | – | – | O=C(NCCc1ccc([N+](=O)[O-])cc1)[C@@H]1C[C@H](NCc2ccccc2)CN1Cc1ccccc1Cl [Compound 56, (2S,4S)-4-(Benzylamino)-1-[(2-chlorophenyl)methyl]-N-[2-(4-nitrophenyl)ethyl]pyrrolidine-2-carboxamide] | – |
| 1.15 µM | 1.13 µM | – | – | O=C(NCCc1ccc([N+](=O)[O-])cc1)[C@@H]1C[C@H](NCCc2ccccc2)CN1Cc1ccccc1Cl [Compound 58] | – |
| 1.39 µM | 2.82 µM | – | – | COc1cccc(CN[C@H]2C[C@@H](C(=O)NCCc3ccc([N+](=O)[O-])cc3)N(Cc3ccccc3Cl)C2)c1 [Compound 59, (2S,4S)-1-[(2-Chlorophenyl)methyl]-4-{[(3-methoxyphenyl)methyl]amino}-N-[2-(4-nitrophenyl)ethyl]pyrrolidine-2-carboxamide] | – |
| 1.92 µM | 3.15 µM | – | – | COc1ccc(CN[C@H]2C[C@@H](C(=O)NCCc3ccc([N+](=O)[O-])cc3)N(Cc3ccccc3Cl)C2)cc1OC [Compound 60, (2S,4S)-1-[(2-Chlorophenyl)methyl]-4-{[(3,4-dimethoxyphenyl)methyl]amino}-N-[2-(4-nitrophenyl)ethyl]pyrrolidine-2-carboxamide] | – |
| 2.06 µM | 6.38 µM | – | – | O=C(NCCc1ccc([N+](=O)[O-])cc1)[C@@H]1C[C@H](NCc2ccc(C(F)(F)F)cc2)CN1Cc1ccccc1Cl [Compound 62, (2S,4S)-1-[(2-Chlorophenyl)methyl]-N-[2-(4-nitrophenyl)ethyl]-4-({[4-(trifluoromethyl)phenyl]methyl}amino)pyrrolidine-2-carboxamide] | – |
